# Biological target: HIS-TGFβR1 T204D (Homo sapiens (Human), UniProt P36897, T204D)
# Experiment: HTRF probe-displacement assay, HIS-TGFβR1 T204D
# Assay type: binding
# Conditions: 1 hour at room temperature
# Chain of HIS-TGFβR1 T204D (P36897 34-503 T204D): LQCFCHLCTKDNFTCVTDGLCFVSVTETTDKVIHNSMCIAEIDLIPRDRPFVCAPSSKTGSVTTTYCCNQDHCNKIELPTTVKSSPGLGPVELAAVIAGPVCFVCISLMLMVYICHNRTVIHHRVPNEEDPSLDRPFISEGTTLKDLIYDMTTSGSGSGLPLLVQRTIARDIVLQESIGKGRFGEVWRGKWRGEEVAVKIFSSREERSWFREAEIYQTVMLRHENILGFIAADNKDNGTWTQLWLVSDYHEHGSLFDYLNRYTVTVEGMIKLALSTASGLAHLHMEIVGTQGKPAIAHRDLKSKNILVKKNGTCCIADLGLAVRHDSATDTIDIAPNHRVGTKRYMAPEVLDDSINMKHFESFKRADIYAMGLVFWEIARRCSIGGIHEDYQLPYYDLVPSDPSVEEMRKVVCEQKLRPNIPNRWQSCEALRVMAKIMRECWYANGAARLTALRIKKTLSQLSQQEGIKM
row,IC50,SMILES
1,220 nM,"O=C(NC1CCOCC1)c1cnccc1Nc1nc(-c2cccc(C(F)F)n2)nn2cccc12 [Example 178, 4-({2-[6-(difluoromethyl)pyridin-2-yl]pyrrolo[2,1-f][1,2,4]triazin-4-yl}amino)-N-(oxan-4-yl)pyridine-3-carboxamide]"
2,0.82 nM,"Cc1nc(-c2nc(Nc3ccncc3Cl)c3cccn3n2)ccc1F [Example 3, 3-chloro-N-[2-(5-fluoro-6-methylpyridin-2-yl)pyrrolo[2,1-f][1,2,4]triazin-4-yl]pyridin-4-amine]"
3,88 nM,"COc1cccc(-c2nc(Nc3ccnc(NCCCN(C)C)c3)c3cccn3n2)n1 [Example 135, 2-N-[3-(dimethylamino)propyl]-4-N-[2-(6-methoxypyridin-2-yl)pyrrolo[2,1-f][1,2,4]triazin-4-yl]pyridine-2,4-diamine]"
4,1.6 nM,"COCC(=O)Nc1cc(Nc2nc(-c3cccc(C(F)(F)F)n3)nn3cccc23)ccn1 [Example 336, 2-methoxy-N-[4-({2-[6-(trifluoromethyl)pyridin-2-yl]pyrrolo[2,1-f][1,2,4]triazin-4-yl}amino)pyridin-2-yl]acetamide]"
5,5.1 nM,"CC(=O)Nc1nccc(Nc2nc(-c3cccc(C(F)F)n3)nn3cccc23)c1F [Example 229, N-[4-({2-[6-(difluoromethyl)pyridin-2-yl]pyrrolo[2,1-f][1,2,4]triazin-4-yl}amino)-3-fluoropyridin-2-yl]acetamide]"
6,9.7 nM,"COc1cccc(-c2nc(Nc3ccncc3F)c3c(CNCC(C)(C)O)ccn3n2)n1 [Example 118, 1-[({4-[(3-fluoropyridin-4-yl)amino]-2-(6-methoxypyridin-2-yl)pyrrolo[2,1-f][1,2,4]triazin-5-yl}methyl)amino]-2-methylpropan-2-ol]"
7,2.2 nM,"OC1CCC(NCc2ccn3nc(-c4ccccn4)nc(Nc4ccncc4F)c23)CC1 (stereo not shown) [Example 236, 4-[({4-[(3-fluoropyridin-4-yl)amino]-2-(pyridin-2-yl)pyrrolo[2,1-f][1,2,4]triazin-5-yl}methyl)amino]cyclohexan-1-ol]"
8,120 nM,"COc1cccc(-c2nc(Nc3ccnc(NCCN4CCOCC4)c3)c3c(C)ccn3n2)n1 [Example 137, 4-N-[2-(6-methoxypyridin-2-yl)-5-methylpyrrolo[2,1-f][1,2,4]triazin-4-yl]-2-N-[2-(morpholin-4-yl)ethyl]pyridine-2,4-diamine]"
9,1.4 nM,"NC(=O)c1cnccc1Nc1nc(-c2ccc(F)c(C(F)F)n2)nn2cccc12 [Example 224, 4-({2-[6-(difluoromethyl)-5-fluoropyridin-2-yl]pyrrolo[2,1-f][1,2,4]triazin-4-yl}amino)pyridine-3-carboxamide]"
10,0.19 nM,"CC(=O)Nc1cc(Nc2nc(-c3cccc(C(F)F)n3)nn3cccc23)ccn1 [Example 13, N-[4-({2-[6-(difluoromethyl)pyridin-2-yl]pyrrolo[2,1-f][1,2,4]triazin-4-yl}amino)pyridin-2-yl]acetamide]"
11,140 nM,"O=C(NCCC(F)(F)F)c1cnccc1Nc1nc(-c2cccc(C(F)F)n2)nn2cccc12 [Example 202, 4-({2-[6-(difluoromethyl)pyridin-2-yl]pyrrolo[2,1-f][1,2,4]triazin-4-yl}amino)-N-(3,3,3-trifluoropropyl)pyridine-3-carboxamide]"
12,7700 nM,"COc1cccc(-c2nc(Nc3ccncc3F)c3cc(CNCCCN4CCS(=O)(=O)CC4)cn3n2)n1 [Example 209, 4-{3-[({4-[(3-fluoropyridin-4-yl)amino]-2-(6-methoxypyridin-2-yl)pyrrolo[2,1-f][1,2,4]triazin-6-yl}methyl)amino]propyl}-1,4-thiomorpholine-1,1-dione]"
13,7.7 nM,"Cc1cccc(-c2nc(Nc3ccncc3)c3cc(C(=O)Nc4ccccc4)cn3n2)n1 [Example 217, 2-(6-methylpyridin-2-yl)-N-phenyl-4-[(pyridin-4-yl)amino]pyrrolo[2,1-f][1,2,4]triazine-6-carboxamide]"
14,3 nM,"COc1cccc(-c2nc(Nc3ccncc3F)c3c(CCO)ccn3n2)n1 [Example 46, 2-{4-[(3-fluoropyridin-4-yl)amino]-2-(6-methoxypyridin-2-yl)pyrrolo[2,1-f][1,2,4]triazin-5-yl}ethan-1-ol]"
15,< 0.76 nM,"Cc1ccc(F)c(-c2nc(Nc3ccncc3F)c3cccn3n2)n1 [Example 261, 3-fluoro-N-[2-(3-fluoro-6-methylpyridin-2-yl)pyrrolo[2,1-f][1,2,4]triazin-4-yl]pyridin-4-amine]"
16,64 nM,"O=C(NCc1nc[nH]n1)c1cnccc1Nc1nc(-c2cccc(C(F)F)n2)nn2cccc12 [Example 191, 4-({2-[6-(difluoromethyl)pyridin-2-yl]pyrrolo[2,1-f][1,2,4]triazin-4-yl}amino)-N-(1H-1,2,4-triazol-3-ylmethyl)pyridine-3-carboxamide]"
17,1 nM,"Fc1cnccc1Nc1nc(-c2ccccn2)nn2ccc(CNCC3CCCO3)c12 (stereo not shown) [Example 247, 3-fluoro-N-(5-{[(oxolan-2-ylmethyl)amino]methyl}-2-(pyridin-2-yl)pyrrolo[2,1-f][1,2,4]triazin-4-yl)pyridin-4-amine]"
18,88 nM,"Fc1c(Nc2nc(-c3cccc(C(F)F)n3)nn3cccc23)ccnc1Cl [Example 7, 2-chloro-N-{2-[6-(difluoromethyl)pyridin-2-yl]pyrrolo[2,1-f][1,2,4]triazin-4-yl}-3-fluoropyridin-4-amine]"
19,14 nM,"Fc1cccc(-c2nc(Nc3ccncc3)c3cccn3n2)n1 [Example 213, N-[2-(6-fluoropyridin-2-yl)pyrrolo[2,1-f][1,2,4]triazin-4-yl]pyridin-4-amine]"
20,140 nM,"O=C(N[C@@H]1CCC[C@@H]1O)c1cnccc1Nc1nc(-c2cccc(C(F)F)n2)nn2cccc12 [Example 198, 4-({2-[6-(difluoromethyl)pyridin-2-yl]pyrrolo[2,1-f][1,2,4]triazin-4-yl}amino)-N-[(1R,2S)-2-hydroxycyclopentyl]pyridine-3-carboxamide]"
21,2.5 nM,"Fc1cnccc1Nc1nc(-c2ccccn2)nn2ccc(CNCCc3ccccn3)c12 [Example 304, 3-fluoro-N-[2-(pyridin-2-yl)-5-({[2-(pyridin-2-yl)ethyl]amino}methyl)pyrrolo[2,1-f][1,2,4]triazin-4-yl]pyridin-4-amine]"
22,0.76 nM,"NC(=O)c1cnccc1Nc1nc(-c2ccccn2)nn2cccc12 [Example 83, 4-{[2-(pyridin-2-yl)pyrrolo[2,1-f][1,2,4]triazin-4-yl]amino}pyridine-3-carboxamide]"
23,5.6 nM,"CC(C)CC(=O)Nc1cc(Nc2nc(-c3cccc(C(F)(F)F)n3)nn3cccc23)ccn1 [Example 314, 3-methyl-N-[4-({2-[6-(trifluoromethyl)pyridin-2-yl]pyrrolo[2,1-f][1,2,4]triazin-4-yl}amino)pyridin-2-yl]butanamide]"
24,49 nM,"O=C(NCCN1CCNCC1)c1cnccc1Nc1nc(-c2ccccn2)nn2cccc12 [Example 151, N-[2-(piperazin-1-yl)ethyl]-4-{[2-(pyridin-2-yl)pyrrolo[2,1-f][1,2,4]triazin-4-yl]amino}pyridine-3-carboxamide]"
25,1.7 nM,"O=C(CN1CCCCC1)Nc1cc(Nc2nc(-c3cccc(C(F)(F)F)n3)nn3cccc23)ccn1 [Example 329, 2-(piperidin-1-yl)-N-[4-({2-[6-(trifluoromethyl)pyridin-2-yl]pyrrolo[2,1-f][1,2,4]triazin-4-yl}amino)pyridin-2-yl]acetamide]"
